{
  "source": "paper PMC5587682",
  "about": "(Scientific Reports, 2017)",
  "note": "Residues, ends and D or L forms follow the SMILES beside them.",
  "data": [
    {"system": "A/Parma/24/09 H1N1 oseltamivir-resistant virus", "type": "cell-based, Influenza A virus", "conditions": "turkey erythrocytes", "units": {"HI titer": "nM"}, "values": [
      {"compound": "C[C@H](NC(=O)[C@H](Cc1c[nH]c2ccccc12)NC(=O)[C@H](CC(=O)O)NC(=O)[C@H](C)NC(=O)[C@@H](NC(=O)[C@H](CO)NC(=O)[C@H](CCC(=O)O)NC(=O)CNC(=O)[C@H](CC(N)=O)NC(=O)[C@@H](N)[C@@H](C)O)[C@@H](C)O)C(=O)N[C@@H](CCCCN)C(=O)N[C@@H](CC(N)=O)C(N)=O", "note": "[Peptide 6, TNGESTADWAKN] (H-TNGESTADWAKN-NH2; N-terminus and C-terminus assumed)", "HI titer": 1.5},
      {"compound": "C[C@@H](O)[C@H](NC(=O)[C@H](CCC(=O)O)NC(=O)[C@H](CO)NC(=O)[C@@H](N)CCCCN)C(=O)N[C@@H](CCCCN)C(=O)N[C@@H](CC(N)=O)C(=O)O", "note": "[Peptide 8, KSETKN] (H-KSETKN-OH; N-terminus and C-terminus assumed)", "HI titer": 0.3},
      {"compound": "CC(C)C[C@H](NC(=O)[C@@H](NC(=O)[C@H](CS)NC(=O)[C@H](CC(=O)O)NC(=O)[C@H](CC(C)C)NC(=O)[C@@H](N)CO)C(C)C)C(=O)N[C@@H](CCCNC(=N)N)C(=O)N1CCC[C@H]1C(N)=O", "note": "[Peptide 13, SLDCVLRP] (H-SLDCVLRP-NH2)", "HI titer": 0.00015},
      {"compound": "CC(C)C[C@H](NC(=O)[C@H](CO)NC(=O)[C@H](CO)NC(=O)[C@H](Cc1c[nH]cn1)NC(=O)[C@H](CCCCN)NC(=O)[C@@H](N)CO)C(=O)N[C@@H](CC(=O)O)C(=O)N[C@@H](CS)C(=O)O", "note": "[Peptide 16, SKHSSLDC] (H-SKHSSLDC-OH; N-terminus and C-terminus assumed)", "HI titer": 12},
      {"compound": "NRKSSKHSSLDCVLRP [Peptide 11, bLf C-lobe fragment 414–429]", "HI titer": 12},
      {"compound": "NRKSSKHSSLDCVLRPTEGY [Peptide 10, bLf C-lobe fragment 414–433]", "HI titer": 6},
      {"compound": "SKHSSLDCVLRPTEGY [Peptide 12, bLf C-lobe fragment 418–433]", "HI titer": 0.1}
    ]}
  ]
}
